Experimental data taken from patent publication US20260271933A1 (priority 2023, published 2026).

Assays:
Phytophthora infestans = assay: whole plant or invertebrate; type: in vivo; details: in Solanum lycopersicum, foliar, read-out: control of Phytophthora infestans
Pythium ultimum = Pythium ultimum / liquid culture (seedling damping off); type: cell-based; details: Globisporangium ultimum, growth inhibition determined photometrically, compared to untreated control
Description: Pythium ultimum/Liquid Culture (Seedling Damping Off)
Mycelia fragments and oospores of a newly grown liquid culture of the fungus are directly mixed into nutrient broth (PDB potato dextrose broth). After placing a (DMSO) solution of test compound into a microtiter plate (96-well format), the nutrient broth containing the fungal mycelia/spore mixture is added.
The test plates are incubated at 24° C. and the inhibition of growth is determined photometrically 2-3 days after application.

Plasmopara viticola = assay: whole plant or invertebrate; type: in vivo; details: foliar

| Compound | pest or weed control at 200 ppm (Phytophthora infestans) | inhibition of growth at 20 ppm (Pythium ultimum) | pest or weed control at 200 ppm (Plasmopara viticola) |
| --- | --- | --- | --- |
| COC(=O)Nc1ccc(-c2cnc3ccc(C(=O)N4CCCc5c(C)cccc54)cn23)cn1 [Compound 27, methyl N-[5-[6-(5-methyl-3,4-dihydro-2H-quinoline-1-carbonyl)imidazo[1,2-a]pyridin-3-yl]-2-pyridyl]carbamate] | ≥ 80% | ≥ 80% | – |
| COC(=O)Nc1ccc(-c2cnc3ccc(C(=O)N(C)c4ccc(Cl)cn4)cn23)cn1 [Compound 68, methyl N-[5-[6-[(5-chloro-2-pyridyl)-methyl-carbamoyl]imidazo[1,2-a]pyridin-3-yl]-2-pyridyl]carbamate] | – | ≥ 80% | – |
| COC(=O)Nc1ccc(-c2cnc3ccc(C(=O)N(C)c4cc(Cl)ccc4C)cn23)cn1 [Compound 47, methyl N-[5-[6-[(5-chloro-2-methyl-phenyl)-methyl-carbamoyl]imidazo[1,2-a]pyridin-3-yl]-2-pyridyl]carbamate] | – | ≥ 80% | – |
| COC(=O)Nc1ccc(-c2cnc3ccc(C(=O)N4CCCc5c4ccc(F)c5OC)cn23)cn1 [Compound 62, methyl N-[5-[6-(6-fluoro-5-methoxy-3,4-dihydro-2H-quinoline-1-carbonyl)imidazo[1,2-a]pyridin-3-yl]-2-pyridyl]carbamate] | ≥ 80% | ≥ 80% | – |
| COC(=O)Nc1ccc(-c2cnc3ccc(C(=O)N4CCCc5ccc(OC)cc54)cn23)cn1 [Compound 56, methyl N-[5-[6-(7-methoxy-3,4-dihydro-2H-quinoline-1-carbonyl)imidazo[1,2-a]pyridin-3-yl]-2-pyridyl]carbamate] | – | ≥ 80% | – |
| COC(=O)Nc1ccc(-c2cnc3ccc(C(=O)N(C)c4cccc(F)c4OC)cn23)cn1 [Compound 12, methyl N-[5-[6-[(3-fluoro-2-methoxy-phenyl)-methyl-carbamoyl]imidazo[1,2-a]pyridin-3-yl]-2-pyridyl]carbamate] | ≥ 80% | ≥ 80% | – |
| COC(=O)Nc1ccc(-c2cnc3ccc(C(=O)N4CCCc5cc(OC)c(F)cc54)cn23)cn1 [Compound 63, methyl N-[5-[6-(7-fluoro-6-methoxy-3,4-dihydro-2H-quinoline-1-carbonyl)imidazo[1,2-a]pyridin-3-yl]-2-pyridyl]carbamate] | – | ≥ 80% | – |
| COC(=O)Nc1ccc(-c2cnc3ccc(C(=O)N(C)c4cc(F)ccc4F)cn23)cn1 [Compound 54, methyl N-[5-[6-[(2,5-difluorophenyl)-methyl-carbamoyl]imidazo[1,2-a]pyridin-3-yl]-2-pyridyl]carbamate] | ≥ 80% | ≥ 80% | – |
| COC(=O)Nc1ccc(-c2cnc3ccc(C(=O)N(C)c4ccccc4C(=O)OC)cn23)cn1 [Compound 46, methyl 2-[[3-[6-(methoxycarbonylamino)-3-pyridyl]imidazo[1,2-a]pyridine-6-carbonyl]-methyl-amino]benzoate] | ≥ 80% | ≥ 80% | – |
| COC(=O)Nc1ccc(-c2cnc3ccc(C(=O)N4c5ccccc5CCC4C)cn23)cn1 (stereo not shown) [Compound 14, methyl N-[5-[6-(2-methyl-3,4-dihydro-2H-quinoline-1-carbonyl)imidazo[1,2-a]pyridin-3-yl]-2-pyridyl]carbamate] | – | ≥ 80% | – |
| COC(=O)Nc1ccc(-c2cnc3ccc(C(=O)N4CC(C)Cc5ccccc54)cn23)cn1 (stereo not shown) [Compound 8, methyl N-[5-[6-(3-methyl-3,4-dihydro-2H-quinoline-1-carbonyl)imidazo[1,2-a]pyridin-3-yl]-2-pyridyl]carbamate] | – | ≥ 80% | – |
| COC(=O)Nc1ccc(-c2cnc3ccc(C(=O)N4CCCc5cc(Cl)ccc54)cn23)cn1 [Compound 48, methyl N-[5-[6-(6-chloro-3,4-dihydro-2H-quinoline-1-carbonyl)imidazo[1,2-a]pyridin-3-yl]-2-pyridyl]carbamate] | – | ≥ 80% | – |
| COC(=O)Nc1ccc(-c2cnc3ccc(C(=O)N4CC(O)Cc5ccccc54)cn23)cn1 (stereo not shown) [Compound 43, methyl N-[5-[6-(3-hydroxy-3,4-dihydro-2H-quinoline-1-carbonyl)imidazo[1,2-a]pyridin-3-yl]-2-pyridyl]carbamate] | ≥ 80% | ≥ 80% | – |
| COC(=O)Nc1ccc(-c2cnc3ccc(C(=O)N4CCCc5c4ccc(C)c5F)cn23)cn1 [Compound 28, methyl N-[5-[6-(5-fluoro-6-methyl-3,4-dihydro-2H-quinoline-1-carbonyl)imidazo[1,2-a]pyridin-3-yl]-2-pyridyl]carbamate] | – | ≥ 80% | – |
| COC(=O)Nc1ccc(-c2cnc3ccc(C(=O)N4CCCc5cc(F)c(F)cc54)cn23)cn1 [Compound 26, methyl N-[5-[6-(6,7-difluoro-3,4-dihydro-2H-quinoline-1-carbonyl)imidazo[1,2-a]pyridin-3-yl]-2-pyridyl]carbamate] | – | ≥ 80% | – |
| COC(=O)Nc1ccc(-c2cnc3ccc(C(=O)N(C)c4ccc(Cl)cc4F)cn23)cn1 [Compound 53, methyl N-[5-[6-[(4-chloro-2-fluoro-phenyl)-methyl-carbamoyl]imidazo[1,2-a]pyridin-3-yl]-2-pyridyl]carbamate] | – | ≥ 80% | – |
| COC(=O)Nc1ccc(-c2cnc3ccc(C(=O)N4CCCc5c(C(=O)OC)cccc54)cn23)cn1 [Compound 7, methyl 1-[3-[6-(methoxycarbonylamino)-3-pyridyl]imidazo[1,2-a]pyridine-6-carbonyl]-3,4-dihydro-2H-quinoline-5-carboxylate] | – | ≥ 80% | ≥ 80% |
| COC(=O)Nc1ccc(-c2cnc3ccc(C(=O)N(C)c4cccc(Cl)c4Cl)cn23)cn1 [Compound 39, methyl N-[5-[6-[(2,3-dichlorophenyl)-methyl-carbamoyl]imidazo[1,2-a]pyridin-3-yl]-2-pyridyl]carbamate] | – | – | ≥ 80% |
| COC(=O)Nc1ccc(-c2cnc3ccc(C(=O)N4CC(OC)Cc5ccccc54)cn23)cn1 (stereo not shown) [Compound 32, methyl N-[5-[6-(3-methoxy-3,4-dihydro-2H-quinoline-1-carbonyl)imidazo[1,2-a]pyridin-3-yl]-2-pyridyl]carbamate] | ≥ 80% | ≥ 80% | – |
| COC(=O)Nc1ccc(-c2cnc3c(C)cc(C(=O)N4CCOc5cc(F)ccc54)cn23)cn1 [Compound 5, methyl N-[5-[6-(7-fluoro-2,3-dihydro-1,4-benzoxazine-4-carbonyl)-8-methyl-imidazo[1,2-a]pyridin-3-yl]-2-pyridyl]carbamate] | ≥ 80% | ≥ 80% | – |
| CCN(C(=O)c1ccc2ncc(-c3ccc(NC(=O)OC)nc3)n2c1)c1ccccc1C(=O)OC [Compound 59, methyl 2-[ethyl-[3-[6-(methoxycarbonylamino)-3-pyridyl]imidazo[1,2-a]pyridine-6-carbonyl]amino]benzoate] | ≥ 80% | – | – |
| COC(=O)Nc1ccc(-c2cnc3ccc(C(=O)N4CCCc5cc(Cl)cc(F)c54)cn23)cn1 [Compound 17, methyl N-[5-[6-(6-chloro-8-fluoro-3,4-dihydro-2H-quinoline-1-carbonyl)imidazo[1,2-a]pyridin-3-yl]-2-pyridyl]carbamate] | ≥ 80% | ≥ 80% | – |
| COC(=O)Nc1ccc(-c2cnc3ccc(C(=O)N(C)c4cccc5c4OCC5)cn23)cn1 [Compound 4, methyl N-[5-[6-[2,3-dihydrobenzofuran-7-yl(methyl)carbamoyl]imidazo[1,2-a]pyridin-3-yl]-2-pyridyl]carbamate] | – | ≥ 80% | ≥ 80% |
| COC(=O)Nc1ccc(-c2cnc3ccc(C(=O)N4CCCc5c(F)cccc54)cn23)cn1 [Compound 13, methyl N-[5-[6-(5-fluoro-3,4-dihydro-2H-quinoline-1-carbonyl)imidazo[1,2-a]pyridin-3-yl]-2-pyridyl]carbamate] | – | ≥ 80% | – |
| COC(=O)Nc1ccc(-c2cnc3ccc(C(=O)N(C)c4ccccc4OC)cn23)cn1 [Compound 60, methyl N-[5-[6-[(2-methoxyphenyl)-methyl-carbamoyl]imidazo[1,2-a]pyridin-3-yl]-2-pyridyl]carbamate] | – | ≥ 80% | – |
| COC(=O)Nc1ccc(-c2cnc3ccc(C(=O)N(C)c4ccc(F)cc4F)cn23)cc1 [Compound 78, methyl N-[4-[6-[(2,4-difluorophenyl)-methyl-carbamoyl]imidazo[1,2-a]pyridin-3-yl]phenyl]carbamate] | – | ≥ 80% | ≥ 80% |
| COC(=O)Nc1ccc(-c2cnc3ccc(C(=O)N4CC(O)Cc5cc(F)ccc54)cn23)cn1 (stereo not shown) [Compound 24, methyl N-[5-[6-(6-fluoro-3-hydroxy-3,4-dihydro-2H-quinoline-1-carbonyl)imidazo[1,2-a]pyridin-3-yl]-2-pyridyl]carbamate] | ≥ 80% | ≥ 80% | – |
| COC(=O)Nc1ccc(-c2cnc3c(C)cc(C(=O)N(C)c4cccc5c4OCC5)cn23)cn1 [Compound 1, methyl N-[5-[6-[2,3-dihydrobenzofuran-7-yl(methyl)carbamoyl]-8-methyl-imidazo[1,2-a]pyridin-3-yl]-2-pyridyl]carbamate] | – | – | ≥ 80% |
| COC(=O)Nc1ccc(-c2cnc3ccc(C(=O)N(C)c4cc(Cl)ccc4OC)cn23)cn1 [Compound 61, methyl N-[5-[6-[(5-chloro-2-methoxy-phenyl)-methyl-carbamoyl]imidazo[1,2-a]pyridin-3-yl]-2-pyridyl]carbamate] | – | ≥ 80% | – |
| COC(=O)Nc1ccc(-c2cnc3ccc(C(=O)N4CCCc5c(OC(F)F)cccc54)cn23)cn1 [Compound 58, methyl N-[5-[6-[5-(difluoromethoxy)-3,4-dihydro-2H-quinoline-1-carbonyl]imidazo[1,2-a]pyridin-3-yl]-2-pyridyl]carbamate] | – | ≥ 80% | – |
